Test results taken from patent publication US9233983B2, “Substituted hetero-bicyclic compounds, compositions and medicinal applications thereof” (ADVINUS THERAPEUTICS LIMITED, priority 2012, dated 2016).

What follows are compounds tested against human Bruton's Tyrosine Kinase (Btk) (Homo sapiens (Human), UniProt Q06187) (assay: Recombinant Human Bruton's Tyrosine Kinase (Btk) Inhibition Assay (HTRF KinEASE-TK)). Details: 20 ng/ml rhBtk, 77 μM ATP (KM), 1 μM TK-Biotin substrate, 90 min; read-out: hBTK IC50.
human Bruton's Tyrosine Kinase (Btk), sequence (Q06187 whole entry): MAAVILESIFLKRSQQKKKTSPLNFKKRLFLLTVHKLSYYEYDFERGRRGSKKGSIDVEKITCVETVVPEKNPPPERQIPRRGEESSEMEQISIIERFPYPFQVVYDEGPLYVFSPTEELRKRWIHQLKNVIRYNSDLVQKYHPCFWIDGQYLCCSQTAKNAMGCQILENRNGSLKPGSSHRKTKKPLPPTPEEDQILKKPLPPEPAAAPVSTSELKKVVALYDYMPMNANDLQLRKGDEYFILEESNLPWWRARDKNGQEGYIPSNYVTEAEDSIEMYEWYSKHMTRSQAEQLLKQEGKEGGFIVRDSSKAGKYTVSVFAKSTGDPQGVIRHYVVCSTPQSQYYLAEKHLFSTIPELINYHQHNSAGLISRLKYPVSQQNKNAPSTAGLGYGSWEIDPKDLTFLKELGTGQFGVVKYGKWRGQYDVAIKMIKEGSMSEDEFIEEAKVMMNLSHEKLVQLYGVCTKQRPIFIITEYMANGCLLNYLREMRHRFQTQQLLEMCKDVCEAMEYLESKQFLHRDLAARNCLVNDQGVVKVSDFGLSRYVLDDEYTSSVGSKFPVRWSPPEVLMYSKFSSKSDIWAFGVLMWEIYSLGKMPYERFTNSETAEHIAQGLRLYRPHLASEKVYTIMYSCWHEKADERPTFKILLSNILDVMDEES
Assay type: biochemical
O=C1c2ccc(C3CC3)cc2OCCN1c1cccc(-c2ccnc3[nH]c(-c4cnn(C5CCOCC5)c4)cc23)c1CO [Example F-2, 8-cyclopropyl-4-[2-(hydroxymethyl)-3-[2-(1-tetrahydropyran-4-ylpyrazol-4-yl)-1H-pyrrolo[2,3-b]pyridin-4-yl]phenyl]-2,3-dihydro-1,4-benzoxazepin-5-one] was tested, and the IC50 was 43 nM. Work on Cc1c(-c2ncnc3[nH]c(-c4ccc(C5CCN(CCO)CC5)cc4)cc23)cccc1-n1ccc2cc(C3CC3)ccc2c1=O [Example H-1, 6-cyclopropyl-2-[3-[6-[4-[1-(2-hydroxyethyl)-4-piperidyl]phenyl]-7H-pyrrolo[2,3-d]pyrimidin-4-yl]-2-methyl-phenyl]isoquinolin-1-one] yielded an IC50 of 13 nM. CN1CCN(Cc2ccc(-c3cc4c(-c5cccc(N6CCOc7cc(C8CC8)cnc7C6=O)c5CO)ccnc4[nH]3)nc2)CC1 [Example I-3, 8-cyclopropyl-4-[2-(hydroxymethyl)-3-[2-[5-[(4-methylpiperazin-1-yl)methyl]-2-pyridyl]-1H-pyrrolo[2,3-b]pyridin-4-yl]phenyl]-2,3-dihydropyrido[2,3-f][1,4]oxazepin-5-one] showed an IC50 of 35 nM. CN(C)C(=O)N1CCN(Cc2ccc(-c3cc4c(-c5cccc(N6CCOc7cc(C8CC8)ccc7C6=O)c5CO)ccnc4[nH]3)nc2)CC1 [Example I-11, 4-[[6-[4-[3-(8-cyclopropyl-5-oxo-2,3-dihydro-1,4-benzoxazepin-4-yl)-2-(hydroxymethyl)phenyl]-1H-pyrrolo[2,3-b]pyridin-2-yl]-3-pyridyl]methyl]-N,N-dimethyl-piperazine-1-carboxamide] showed an IC50 greater than 1000 nM. O=C1c2c(F)cc(C3CC3)cc2OCCN1c1cc(F)cc(-c2ccnc3[nH]c(-c4ccc(CN5CCN(C6COC6)CC5)cn4)cc23)c1CO [Example I-17, 8-cyclopropyl-6-fluoro-4-[5-fluoro-2-(hydroxymethyl)-3-[2-[5-[[4-(oxetan-3-yl)piperazin-1-yl]methyl]-2-pyridyl]-1H-pyrrolo[2,3-b]pyridin-4-yl]phenyl]-2,3-dihydro-1,4-benzoxazepin-5-one] showed an IC50 of 1.3 nM. Cc1c(-c2ncnc3[nH]c(-c4ccc(C(=O)N5CCCC(O)C5)cc4)cc23)cccc1N1CCOc2cc(C3CC3)ccc2C1=O (stereo not shown) [Example K-3, 8-cyclopropyl-4-[3-[6-[4-(3-hydroxypiperidine-1-carbonyl)phenyl]-7H-pyrrolo[2,3-d]pyrimidin-4-yl]-2-methyl-phenyl]-2,3-dihydro-1,4-benzoxazepin-5-one] gave an IC50 of 42 nM. In the case of Cc1c(-c2ncnc3[nH]c(-c4ccc(C(=O)N5CCCCC5)cc4)cc23)cccc1N1CCOc2cc(C3CC3)ccc2C1=O [Example K-5, 8-cyclopropyl-4-[2-methyl-3-[6-[4-(piperidine-1-carbonyl)phenyl]-7H-pyrrolo[2,3-d]pyrimidin-4-yl]phenyl]-2,3-dihydro-1,4-benzoxazepin-5-one], the IC50 is reported as 171 nM. Cc1c(-c2ncnc3[nH]c(-c4ccc(C(=O)NCC(F)(F)F)cc4)cc23)cccc1N1CCOc2cc(C3CC3)ccc2C1=O [Example K-7, 4-[4-[3-(8-cyclopropyl-5-oxo-2,3-dihydro-1,4-benzoxazepin-4-yl)-2-methyl-phenyl]-7H-pyrrolo[2,3-d]pyrimidin-6-yl]-N-(2,2,2-trifluoroethyl)benzamide] gave an IC50 greater than 1000 nM. Compound Cc1c(-c2ncnc3[nH]c(-c4ccc(C(=O)N5CC(O)C5)cc4)cc23)cccc1N1CCOc2cc(C3CC3)ccc2C1=O [Example K-8, 8-cyclopropyl-4-[3-[6-[4-(3-hydroxyazetidine-1-carbonyl)phenyl]-7H-pyrrolo[2,3-d]pyrimidin-4-yl]-2-methyl-phenyl]-2,3-dihydro-1,4-benzoxazepin-5-one] has an IC50 of 360 nM. In the case of Cc1c(-c2ncnc3[nH]c(-c4ccc(C(=O)N5CCCC5)cc4)cc23)cccc1N1CCOc2cc(C3CC3)ccc2C1=O [Example K-9, 8-cyclopropyl-4-[2-methyl-3-[6-[4-(pyrrolidine-1-carbonyl)phenyl]-7H-pyrrolo[2,3-d]pyrimidin-4-yl]phenyl]-2,3-dihydro-1,4-benzoxazepin-5-one], the IC50 is reported as 137 nM.
